Assay results: ChEMBL document CHEMBL1142033, “Synthesis of isonicotinic acid N'-arylidene-N-[2-oxo-2-(4-aryl-piperazin-1-yl)-ethyl]-hydrazides as antituberculosis agents” (2005)
Converted amounts (≈) assume the structure as drawn.

Experiments:
[1] = test system: Mycobacterium tuberculosis; assay: Minimum inhibitory concentration against Mycobacterium tuberculosis H37Rv ATCC 27294; type: functional
[2] = test system: Mycobacterium tuberculosis; assay: Minimum inhibitory concentration against sensitive Mycobacterium tuberculosis clinical isolates; N=9; type: functional
[3] = test system: Mycobacterium tuberculosis; assay: Minimum inhibitory concentration against sensitive Mycobacterium tuberculosis clinical isolates; N=9; range=8-16; type: functional
[4] = test system: Mycobacterium tuberculosis; assay: Minimum inhibitory concentration against sensitive Mycobacterium tuberculosis clinical isolates; N=9; range=2-4; type: functional
[5] = test system: Mycobacterium tuberculosis; assay: Minimum inhibitory concentration against sensitive Mycobacterium tuberculosis clinical isolates; N=9; range=4-8; type: functional
[6] = test system: Mycobacterium tuberculosis; assay: Minimum inhibitory concentration against sensitive Mycobacterium tuberculosis clinical isolates; N=9; range=1-4; type: functional
[7] = test system: Mycobacterium tuberculosis; assay: Minimum inhibitory concentration against sensitive Mycobacterium tuberculosis clinical isolates; N=9; Range = 0.12-0.25; type: functional
[8] = test system: Mycobacterium tuberculosis; assay: microbe, parasite or virus in culture
Description: Minimum inhibitory concentration against sensitive Mycobacterium tuberculosis clinical isolates; N=9; Range=0.03-0.5

| Compound | MIC [1] | MIC [2] | other results |
| --- | --- | --- | --- |
| O=C(CN(/N=C/c1ccccc1Cl)C(=O)c1ccncc1)N1CCN(c2ccc(F)cc2)CC1 | > 16 µg/mL | > 16 µg/mL |  |
| O=C(CN(/N=C/c1cccc(Cl)c1)C(=O)c1ccncc1)N1CCN(c2ccc([N+](=O)[O-])cc2)CC1 | > 16 µg/mL | > 16 µg/mL |  |
| O=C(CN(/N=C/c1ccc(Cl)cc1Cl)C(=O)c1ccncc1)N1CCN(c2ccc(Cl)cc2)CC1 | 8 µg/mL (≈ 15.1 µM) | 8 µg/mL (≈ 15.1 µM) |  |
| O=C(CN(/N=C/c1ccc(Cl)cc1Cl)C(=O)c1ccncc1)N1CCN(c2ccc(F)cc2)CC1 | > 16 µg/mL |  | MIC [3]: 16 µg/mL (≈ 31.1 µM) |
| O=C(CN(/N=C/c1cccc(Cl)c1)C(=O)c1ccncc1)N1CCN(c2ccc(Cl)cc2)CC1 | > 16 µg/mL | > 16 µg/mL |  |
| COc1ccccc1N1CCN(C(=O)CN(/N=C/c2ccc(Cl)cc2)C(=O)c2ccncc2)CC1 | > 16 µg/mL | > 16 µg/mL |  |
| COc1ccccc1N1CCN(C(=O)CN(/N=C/c2ccccc2Cl)C(=O)c2ccncc2)CC1 | > 16 µg/mL | > 16 µg/mL |  |
| O=C(CN(/N=C/c1ccc(Cl)cc1)C(=O)c1ccncc1)N1CCN(c2ccc(Cl)cc2)CC1 | > 16 µg/mL | > 16 µg/mL |  |
| O=C(CN(/N=C/c1ccc(Cl)cc1Cl)C(=O)c1ccncc1)N1CCN(c2cccc(C(F)(F)F)c2)CC1 | > 16 µg/mL | > 16 µg/mL |  |
| O=C(CN(/N=C/c1ccccc1Cl)C(=O)c1ccncc1)N1CCN(c2ccccc2)CC1 | > 16 µg/mL |  | MIC [3]: 16 µg/mL (≈ 34.6 µM) |
| O=C(CN(/N=C/c1ccccc1Cl)C(=O)c1ccncc1)N1CCN(c2ccc([N+](=O)[O-])cc2)CC1 | > 16 µg/mL | > 16 µg/mL |  |
| Cc1cccc(N2CCN(C(=O)CN(/N=C/c3ccc(Cl)cc3Cl)C(=O)c3ccncc3)CC2)c1 | > 16 µg/mL | > 16 µg/mL |  |
| O=C(CN(/N=C/c1ccccc1Cl)C(=O)c1ccncc1)N1CCN(c2cccc(Cl)c2)CC1 | > 16 µg/mL | > 16 µg/mL |  |
| Cc1cccc(N2CCN(C(=O)CN(/N=C/c3ccccc3Cl)C(=O)c3ccncc3)CC2)c1 | > 16 µg/mL | > 16 µg/mL |  |
| O=C(CN(/N=C/c1ccc(Cl)cc1)C(=O)c1ccncc1)N1CCN(c2ccc(F)cc2)CC1 | > 16 µg/mL | > 16 µg/mL |  |
| COc1ccccc1N1CCN(C(=O)CN(/N=C/c2cccc(Cl)c2)C(=O)c2ccncc2)CC1 | > 16 µg/mL | > 16 µg/mL |  |
| O=C(CN(/N=C/c1ccccc1Cl)C(=O)c1ccncc1)N1CCN(c2cccc(C(F)(F)F)c2)CC1 | > 16 µg/mL | > 16 µg/mL |  |

| Compound | MIC [1] | MIC [2] | other results |
| --- | --- | --- | --- |
| O=C(CN(/N=C/c1ccc(Cl)cc1Cl)C(=O)c1ccncc1)N1CCN(c2cccc(Cl)c2)CC1 | > 16 µg/mL | > 16 µg/mL |  |
| O=C(CN(/N=C/c1cccc(Cl)c1)C(=O)c1ccncc1)N1CCN(c2ccc(F)cc2)CC1 | > 16 µg/mL | > 16 µg/mL |  |
| O=C(CN(/N=C/c1cccc(Cl)c1)C(=O)c1ccncc1)N1CCN(c2cccc(Cl)c2)CC1 | > 16 µg/mL | > 16 µg/mL |  |
| O=C(CN(/N=C/c1ccc(Cl)cc1)C(=O)c1ccncc1)N1CCN(c2ccc([N+](=O)[O-])cc2)CC1 | > 16 µg/mL | > 16 µg/mL |  |
| COc1ccccc1N1CCN(C(=O)CN(/N=C/c2ccc(Cl)cc2Cl)C(=O)c2ccncc2)CC1 | > 16 µg/mL | > 16 µg/mL |  |
| O=C(CN(/N=C/c1ccccc1Cl)C(=O)c1ccncc1)N1CCN(c2ccc(Cl)cc2)CC1 | > 16 µg/mL | > 16 µg/mL |  |
| O=C(CN(/N=C/c1ccc(Cl)cc1Cl)C(=O)c1ccncc1)N1CCN(Cc2ccc3c(c2)OCO3)CC1 |  | 0.5 µg/mL (≈ 0.902 µM) | Range of MIC [1]: 1 µg/mL |
| O=C(CN(/N=C/c1ccc(Cl)cc1Cl)C(=O)c1ccncc1)N1CCN(c2ccc([N+](=O)[O-])cc2)CC1 | > 16 µg/mL | > 16 µg/mL |  |
| O=C(CN(/N=C/c1cccc(Cl)c1)C(=O)c1ccncc1)N1CCN(Cc2ccc3c(c2)OCO3)CC1 | 4 µg/mL (≈ 7.69 µM) |  | MIC [4]: 4 µg/mL (≈ 7.69 µM) |
| O=C(CN(/N=C/c1ccc(Cl)cc1Cl)C(=O)c1ccncc1)N1CCN(c2ccccc2)CC1 | > 16 µg/mL | > 16 µg/mL |  |
| O=C(CN(/N=C/c1ccccc1Cl)C(=O)c1ccncc1)N1CCN(Cc2ccc3c(c2)OCO3)CC1 | 4 µg/mL (≈ 7.69 µM) |  | MIC [5]: 8 µg/mL (≈ 15.4 µM) |
| Cc1cccc(N2CCN(C(=O)CN(/N=C/c3cccc(Cl)c3)C(=O)c3ccncc3)CC2)c1 | > 16 µg/mL | > 16 µg/mL |  |
| O=C(CN(/N=C/c1ccc(Cl)cc1)C(=O)c1ccncc1)N1CCN(Cc2ccc3c(c2)OCO3)CC1 | 2 µg/mL (≈ 3.85 µM) |  | MIC [6]: 4 µg/mL (≈ 7.69 µM) |
| O=C(CN(/N=C/c1ccccc1Cl)C(=O)c1ccncc1)N1CCN(c2cccc(Cl)c2Cl)CC1 | > 16 µg/mL | > 16 µg/mL |  |
| O=C(CN(/N=C/c1cccc(Cl)c1)C(=O)c1ccncc1)N1CCN(c2ccccc2)CC1 | > 16 µg/mL | > 16 µg/mL |  |
| NNC(=O)c1ccncc1 [ISONIAZID] | 0.25 µg/mL (≈ 1.82 µM) |  | MIC [7]: 0.25 µg/mL (≈ 1.82 µM) |
| CO[C@H]1/C=C/O[C@@]2(C)Oc3c(C)c(O)c4c(O)c(c(/C=N/N5CCN(C)CC5)c(O)c4c3C2=O)NC(=O)/C(C)=C\C=C\[C@H](C)[C@H](O)[C@@H](C)[C@@H](O)[C@@H](C)[C@H](OC(C)=O)[C@@H]1C [RIFAMPIN] | 0.125 µg/mL (≈ 0.152 µM) |  | MIC [8]: 0.5 µg/mL (≈ 0.608 µM) |
